The target in one data set is T1, La (Homo sapiens, UniProt P05455).
T1 sequence (P05455 1-408): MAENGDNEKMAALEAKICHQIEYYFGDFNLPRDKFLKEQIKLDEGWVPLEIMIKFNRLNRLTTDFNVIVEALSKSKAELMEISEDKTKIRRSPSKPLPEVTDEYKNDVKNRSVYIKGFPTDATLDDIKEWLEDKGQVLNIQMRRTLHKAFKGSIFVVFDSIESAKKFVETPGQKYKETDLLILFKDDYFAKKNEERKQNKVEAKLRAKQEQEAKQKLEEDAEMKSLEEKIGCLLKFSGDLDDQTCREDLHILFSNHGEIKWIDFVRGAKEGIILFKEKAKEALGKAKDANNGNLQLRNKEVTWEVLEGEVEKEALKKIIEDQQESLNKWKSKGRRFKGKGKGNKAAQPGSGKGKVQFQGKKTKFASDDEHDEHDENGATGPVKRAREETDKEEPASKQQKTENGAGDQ
In words: FP counterscreen: La binding to Bcl2 RNA. Background: The purpose of a counterscreen is to sort out artefacts and off-target activity.

For the next data set, the target named is T2, Igf2bp1 KH34 di-domain (Homo sapiens, UniProt Q9NZI8).
T2 construct: Human Igf2bp1 di-domains RRM12 (M1-P188) and KH34 (P387-A574); 6xHis (N, cleaved yes); made in house; host or cells: E. coli BL21(DE3)
T2 sequence (Q9NZI8 387-574): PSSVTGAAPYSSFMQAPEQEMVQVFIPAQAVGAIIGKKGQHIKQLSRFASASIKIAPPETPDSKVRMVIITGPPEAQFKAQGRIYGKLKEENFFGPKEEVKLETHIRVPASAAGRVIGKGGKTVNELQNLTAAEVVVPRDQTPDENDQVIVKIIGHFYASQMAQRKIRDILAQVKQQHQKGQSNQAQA
In words: MST, Igf2bp1 KH34 di-domain. To be noted: read-out: KD of binding to KH34. How it is done: Recombinant full-length Igf2bp1 protein was labelled with RED-tris-NTA dye using a Monolith NT His-Tag Labelling Kit (NanoTemper) while RRM12, KH12 and KH34 di-domain peptides were labelled using the Protein Labelling Kit RED NHS 2nd generation (NanoTemper). Labelled proteins were spun at 15,000 g for 5 min to eliminate aggregates. All samples were 2X labelled protein mix of Igf2bp1 (200 nM) in PBST and were combined (1:1) with serial dilutions of compound or Kras6 RNA in binding buffer (10mMTris pH = 7.5, 100 mM NaCl, 0.1 mM EDTA, 0.06% IPEGAL, 0.02 μg/μL tRNA, 2 mM DTT, 0.1 μg/μL heparin) in final volume of 20 μL, room temperature for 15 min. Samples were then loaded into standard capillaries (NanoTemper) and read in the Monolith NT.115 scanner (NanoTemper) using the red filter with reading conditions of 95% LED power and 40% MST power, 5 sec fluorescence before, 30 sec MST on, 5 sec fluorescence after and 25 sec delay between samples. Results were analysed using the MO Control software (NanoTemper) for curve fitting to KD.
The open reading frame of Igf2bps were cloned into the pET-21(d) plasmid (Novagen) between the Nco1 and Xho1 sites, as previously described. […]

In another data set the target is T3, Igf2bp3 (Homo sapiens, UniProt O00425).
T3 construct: made in house
T3 sequence (O00425 whole entry, species assumed): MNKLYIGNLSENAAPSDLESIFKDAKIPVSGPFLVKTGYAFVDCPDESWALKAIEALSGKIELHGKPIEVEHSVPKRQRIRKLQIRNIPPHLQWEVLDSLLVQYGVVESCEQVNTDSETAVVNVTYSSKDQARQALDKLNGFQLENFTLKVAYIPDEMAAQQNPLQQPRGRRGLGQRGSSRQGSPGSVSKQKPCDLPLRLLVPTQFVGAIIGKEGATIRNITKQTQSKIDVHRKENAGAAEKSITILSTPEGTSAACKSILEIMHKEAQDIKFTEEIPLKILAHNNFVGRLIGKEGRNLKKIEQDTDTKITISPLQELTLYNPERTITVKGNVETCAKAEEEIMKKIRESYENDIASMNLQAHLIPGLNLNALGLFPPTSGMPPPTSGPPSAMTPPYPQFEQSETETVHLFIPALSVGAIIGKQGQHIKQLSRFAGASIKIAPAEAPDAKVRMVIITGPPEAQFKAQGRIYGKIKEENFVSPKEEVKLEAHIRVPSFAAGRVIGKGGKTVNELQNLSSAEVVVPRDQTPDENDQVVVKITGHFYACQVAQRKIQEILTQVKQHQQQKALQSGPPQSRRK
In words: MST, Igf2bp3. To be noted: IGF2BP3 50nM, read-out: KD of binding to Igf2bp3.

The next data set has as its system ES2 cells. In words: Wound healing (cell migration) assay, ES2. Format: cell-based, human. The method, then: Cells were seeded in 96 IncuCyte® ImageLock plates (20X10^3 cells per well) for 24 hours, to a near confluency of 95%, before the addition of increasing concentrations of compound. After a further 24 hours, wells were scratched using the IncuCyte® 96-well WoundMaker Tool, and the cells cultured for an additional 48 hours using the IncuCyte® S3 Live-Cell Analysis System (Essen BioScience). The plate was imaged at increments of 120 minutes for a period of 48 hours, and then analysed for relative wound healing.

A further data set has as its system HEK293 cells. The data set is described as follows: Cell proliferation assay (Incucyte), HEK293. Type of data set: cell-based, human. As to conditions: HEK293, up to 20 μM. The method, then:
ES2, H1299 and HEK293 cells were seeded in a 96 well plate (5X10^3 cells per well) for 24 hours before adding the compound at increasing concentrations. After an additional 24 hours, the plate was incubated in an IncuCyte® S3 Live-Cell Analysis System (Essen BioScience). The wells were filmed for 72 hours, and then analysed for proliferation rate Using IncuCyte® S3 Live-Cell Analysis System (Essen BioScience)

The subject of another data set is H1299 cells. In words: Growth in soft agar, H1299. As to conditions: H1299, 20 μM 7773. Type of data set: cell-based, human. How it is done: Cells were grown for 12 hours in 6 well plates prior to incubation with the compound or DMSO for an additional 48 hours, 2000 cells were suspended in 0.3% agar-complete medium and then seeded in triplicates onto a 0.6% agar-complete medium base in a 6 well plate. After one week, the colonies were fed with 0.3% agar-complete medium, and after 2 additional weeks, imaged and quantified.

“And” between values parts separate entries of the source, which are not always exact repeats. Equal values may be shown once.

In general, IC50 refers to the concentration needed to halve the response being measured. What is called Kd is the equilibrium constant for the complex coming apart. For `O=C(c1ccc(Cn2cnnn2)cc1)N1CCCC(Nc2ccc3c(c2)OCO3)C1` (centres unmarked) [compound 7773], the “Effect on control RBP (La) binding to its target (Bcl2 RNA)” value at La is “almost no effect”. Besides, the IC50 on La (control RNA binding protein, read-out: IC50, inhibition of La binding to Bcl2 RNA) was more than 100 µM. Further, the Kd was 7.1 µM and 7.2 µM on Igf2bp1 KH34 di-domain; 52 µM on Igf2bp3. The Wound healing result in the data set on ES2 cells (ES2, 20 μM) is on record as “strongly inhibited”; with ES2 cells (ES2, lowest concentration 5 μM) it was “discernible inhibition”. Also, in the data set with HEK293 cells, the Cell proliferation entry was “remarkably unaffected”. For the same compound, in the data set on H1299 cells, the “Ability to form colonies in soft agar” value was “dramatically inhibited”.

The values above are taken from publication PMC8794255, “Small molecule inhibitor of Igf2bp1 represses Kras and a pro-oncogenic phenotype in cancer cells” (RNA Biology, 2021).
